The source of these data is US11767506B2, “In vitro maturation culture medium of immature oocytes and use thereof” (CHINA AGRICULTURAL UNIVERSITY, priority 2017, dated 2023).

In one assay the test system is human immature oocytes. The assay is described as follows: In vitro maturation of human immature oocytes on granule cell feeder layer, then ICSI and embryo culture. It is filed as cell-based. How it is done: Microdrop culture of granule cells: the cumulus oocyte complex collected from superovulation of patients were digested with hyaluronidase and then centrifuged to obtain the granule cells; the cells were cultured in the culture solution for in vitro maturation of examples 1˜6 for microdroplet adherent culture respectively. The microdroplets were covered with liquid paraffin. After the granule cells adhered to the wall of the culture dishes, the resultants could be used as the culture medium 1˜6 for in vitro maturation of immature oocytes.
The immature oocytes identified from superovulation of patients were put in the culture medium for in vitro maturation 1 (i.e., the culture medium obtained by using the culture solution for in vitro maturation of Example 1) containing feeder layer cells for microdrop culture. There were 1˜2 oocytes per microdroplet, culture time 20˜25 h, and culture conditions: 37° C., air with 5% CO2 and 6% of O2, and humidity 100%. The development results of the immature oocytes after microdroplet culturing in the culture medium for in vitro maturation 1 were shown in FIG. 1.
Intracytoplasmic sperm injection (ICSI) using the mature oocytes: the immature oocytes were culture in vitro for 20˜25 h, the maturation status was observed. The oocytes reached the metaphase II (MII) were placed under micromanipulator for ICSI injection.
Embryo culture after fertilization: embryo culture medium G-1PLUS™ (Vitrolife, Sweden) was used to make several 50 μL microdroplets in a 35 mm culture dish. Mineral oil was covered on the surface of the droplets. This culture medium was suitable for culturing embryos from fertilized oocyte (0 day) to 8-cell embryo.
Embryo culture medium G-2 PLUS™ (Vitrolife. Sweden) was used to make several 50 μL microdroplets in a 35 mm Petri culture dish. Mineral oil was covered on the surface of the droplets. This culture medium was suitable for culturing embryos from 8-cell stage until blastocyst stage.
The common medium for maturation was M199 culture medium.

The next assay has as its system mouse oocytes. The assay is described as follows: In vitro maturation of mouse immature oocytes (cumulus oocyte complexes) on mouse granule cells, fertilization and embryo culture. It is filed as cell-based, C57/BL6J mice. An excerpt:
The specific culture method was referred to Example 8, and the differences were: instead of the granule cells form patients, granule cells from C57/BL6J mice were used; instead of the oocytes form patients, cumulus oocyte complexes form C57/BL6J mice were used.

Assay [1] relates to human ovary granule cells. In words: Expression/secretion of EGF-like growth factors (AREG) by granule cells. Conditions: FIG. 1F. In kind it is cell-based. On the procedure:
Correspondingly, our experiments were performed by: under conditions of in vitro culture, simulating the effect of LH, which functions on granule cells to promote the maturation of oocytes in vivo, so as to achieve the goal of promoting the maturation of oocytes and meanwhile, improving the development potential.

Assay [2] has as its system oocyte in follicle of mouse. In words: In vitro follicle culture model, recovery of oocyte meiosis. Conditions: FIG. 2A. In kind it is cell-based.

Turning to `Cc1ccc(NC(=O)CCCCCC(=O)Nc2ccccc2N)cc1` [HDACi 4b], the “maturation and development of human oocytes from germinal vesicle (GV) stage into metaphase II (MII) stage” value in the assay with human immature oocytes (FIG. 1A) is “promotes the maturation and development”. In addition, the “numbers of 2 pronucleus zygotes (2PN) obtained by ICSI fertilization on MII oocytes” value with human immature oocytes (FIG. 1B, treated group versus control group) is on record as “basically the same”. In the assay on human immature oocytes (FIG. 1C), the “cleavage ability of treated oocytes after fertilization” value is reported as “significantly improved”. Further, in the assay on human immature oocytes (FIG. 1E), the “development ability of embryos (blastocyst counting)” value is “significantly increased”. The “quality of blastocysts (immunofluorescence of OCT4 and CDX2)” value in the assay with human immature oocytes (FIG. 1G) was “significantly improved”. Also, in the assay on mouse oocytes (FIG. 2), the “maturation and development ability of mouse oocytes” value is recorded as “significantly promotes”. In the assay on mouse oocytes (FIG. 2C), the “oocyte stepping over the first meiosis to metaphase II (MII)” value is “significantly promotes”. Besides, in the assay with mouse oocytes (FIG. 2D, versus control group), the “cleavage abilities after fertilization” value is listed as “basically the same”. For the same compound, the “ability to develop into an embryo from fertilized GV stage oocytes” value with mouse oocytes (FIG. 2E) is “significantly improved”. The “ability to develop into a blastocyst from fertilized treated oocytes” value in the assay with mouse oocytes (FIG. 2F) was “significantly increased”. In the assay with mouse oocytes (FIG. 2H), the “ability to develop into a blastocyst (blastocyst counting) from fertilized treated GV stage oocytes” value is “significantly increased”. Moreover, the “quality of blastocysts (immunofluorescence of OCT4)” value with mouse oocytes (FIG. 2I) was “significantly increased”. In addition, the “expression of AREG” value in assay [1] is “significantly promotes”. Moreover, the “recovery of oocyte meiosis in follicle of mouse” value in assay [2] is given as “significantly promotes”.
